Earlier results as cited in article PMC10329608, “Investigation of the structure-activity relationship at the N-terminal part of minigastrin analogs” (EJNMMI Research, 2023).

Test system: A431-CCK-2R tumor
Settings: mouse, in vivo, 1 h; cited from earlier work

**Q.** For “DOTA-D-Glu-Ala-Tyr-Gly-Trp-(N-Me)Nle-Asp-1-Nal-NH2 [[^68 Ga]Ga-DOTA-MGS5]”, which “activity levels in the tumor” value is on record?
**A.** 23.3 ± 4.7 %ID/g

**Q.** What about the “activity uptake in the kidneys” value of the same substance?
**A.** 5.7 ± 1.4 %ID/g
